Measured values from patent publication US8119624B2, “Fused phenyl amido heterocyclic compounds” (Pfizer Inc., priority 2006, dated 2012).

Target: T1, Full-length glucokinase (beta cell isoform) (Homo sapiens, UniProt P35557)
T1 construct: Full-length glucokinase (beta cell isoform) was His-tagged at N-terminus; His tag (N); made in house
T1 sequence (P35557 1-465): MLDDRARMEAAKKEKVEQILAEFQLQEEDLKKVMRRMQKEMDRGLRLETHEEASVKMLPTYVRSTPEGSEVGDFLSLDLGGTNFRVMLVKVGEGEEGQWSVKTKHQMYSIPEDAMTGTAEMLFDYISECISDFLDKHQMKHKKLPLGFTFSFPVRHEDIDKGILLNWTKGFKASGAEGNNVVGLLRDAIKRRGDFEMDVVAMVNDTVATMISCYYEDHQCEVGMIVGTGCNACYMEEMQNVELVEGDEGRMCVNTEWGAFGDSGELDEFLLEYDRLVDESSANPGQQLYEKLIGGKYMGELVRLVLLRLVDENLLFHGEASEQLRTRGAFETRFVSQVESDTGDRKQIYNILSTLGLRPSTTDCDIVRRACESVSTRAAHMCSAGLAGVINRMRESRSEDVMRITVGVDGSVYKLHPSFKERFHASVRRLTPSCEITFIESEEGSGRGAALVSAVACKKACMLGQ
Test: Glucokinase biochemical assay (PK/LDH-coupled, NADH depletion at 340 nm): % activation, EC50, % max activation
Details: 5 mM glucose; for activation at 10 µM: 10 uM compound, % Activation=(Va/Vo−1)×100, read-out: % Activation at 10 uM; for EC50: GK activation, read-out: EC50; for Emax: fitted maximum activation, read-out: % Max Activation
In short: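 N-terminally His-tagged full-length human beta-cell glucokinase, room temperature, 5 mM glucose, 1 mM ATP, PK/LDH-coupled with 0.7 mM NADH, 1% DMSO final. Initial velocity from the 200–900 s slope of A340 decline. % activation = (Va/Vo−1)×100, measured across compound concentrations.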

| activation at 10 µM [%] | EC50 [µM] | Emax [%] | SMILES |
| --- | --- | --- | --- |
| 84.3 | 0.43 | 105 | COc1cnc(NC(=O)c2cc(Oc3ccc(C(=O)N(C)C)nc3)c3cc(C)oc3c2)cn1 [Example 279, 5-(6-((5-Methoxypyrazin-2-yl)carbamoyl)-2-methylbenzofuran-4-yloxy)-N,N-dimethylpicolinamide] |
| 130 | 2.4 | 148 | Cc1cc2c(Oc3ccc(S(C)(=O)=O)cn3)cc(C(=O)Nc3cnc(N(C)C)cn3)cc2o1 [Example 280, N[5-(Dimethylamino)pyrazin-2-yl]-2-methyl-4-{[5-(methylsulfonyl)pyridin-2-yl]oxy}-1-benzofuran-6-carboxamide] |
| 92.7 | 2.1 | 87 | Cc1ccc(NC(=O)c2cc(Oc3ccc(S(C)(=O)=O)cn3)c3cc(C)oc3c2)nc1 [Example 281, 2-Methyl-N-(5-methylpyridin-2-yl)-4-(5-(methylsulfonyl)pyridin-2-yloxy)-benzofuran-6-carboxamide] |
| 140 | > 10 |  | Cc1cc2c(Oc3ccc(S(C)(=O)=O)cn3)cc(C(=O)Nc3cnn(C)n3)cc2o1 [Example 282, 2-Methyl-N-(2-methyl-2H-1,2,3-triazol-4-yl)-4-(5-(methylsulfonyl)pyridin-2-yloxy)benzofuran-6-carboxamide] |
| 132 | > 10 |  | Cc1cc2c(Oc3ccc(S(C)(=O)=O)cn3)cc(C(=O)Nc3ccn(C)n3)cc2o1 [Example 283, 2-Methyl-N-(1-methyl-1H-pyrazol-3-yl)-4-(5-(methylsulfonyl)-pyridin-2-yloxy)-benzofuran-6-carboxamide] |
| 86.1 | 5.5 | 218 | COc1cnc(NC(=O)c2cc(Oc3ccc(S(C)(=O)=O)cn3)c3cc(C)oc3c2)cn1 [Example 284, N-(5-Methoxypyrazin-2-yl)-2-methyl-4-(5-(methylsulfonyl)-pyridin-2-yloxy)-benzofuran-6-carboxamide] |
| 121 | 0.547 | 118 | Cc1ccc(NC(=O)c2cc(Oc3ccc(S(C)(=O)=O)cc3)c3cc(C(=O)N(C)C)oc3c2)nc1 [Example 285, N2,N2-Dimethyl-N6-(5-methylpyridin-2-yl)-4-(4-(methylsulfonyl)-phenoxy)-benzofuran-2,6-dicarboxamide] |
| 178 | 2.6 | 224 | CN(C)C(=O)c1cc2c(Oc3ccc(S(C)(=O)=O)cc3)cc(C(=O)Nc3ccn(C)n3)cc2o1 [Example 286, N2,N2-Dimethyl-N6-(1-methyl-1H-pyrazol-3-yl)-4-[4-(methylsulfonyl)phenoxy]-1-benzofuran-2,6-dicarboxamide] |
| 80.3 | 0.562 | 169 | COc1cnc(NC(=O)c2cc(Oc3ccc(S(C)(=O)=O)cc3)c3cc(C(=O)N(C)C)oc3c2)cn1 [Example 287, N6-(5-Methoxypyrazin-2-yl)-N2,N2-dimethyl-4-[4-(methylsulfonyl)phenoxy]-1-benzofuran-2,6-dicarboxamide] |
| 161 | 1.7 | 188 | CN(C)C(=O)c1cc2c(Oc3ccc(S(C)(=O)=O)cc3)cc(C(=O)Nc3cnn(C)n3)cc2o1 [Example 288, N2,N2-Dimethyl-4-[4-(methylsulfonyl)phenoxy]-N6-(2-methyl-2H-1,2,3-triazol-4-yl)-1-benzofuran-2,6-dicarboxamide] |
| 73.8 | 7.8 | 133 | COc1ccnc(NC(=O)c2cc(Oc3ccc(S(C)(=O)=O)cc3)c3cc(C(=O)N(C)C)oc3c2)c1 [Example 289, N6-(4-Methoxypyridin-2-yl)-N2,N2-dimethyl-4-[4-(methylsulfonyl)phenoxy]-1-benzofuran-2,6-dicarboxamide] |
| 12.8 |  |  | Cc1ccc(NC(=O)c2cc(Oc3ccc(S(C)(=O)=O)cc3)c3cc(C(=O)N4CCC4)oc3c2)nc1 [Example 290, 2-(Azetidin-1-ylcarbonyl)-N-(5-methylpyridin-2-yl)-4-[4-(methylsulfonyl)-phenoxy]-1-benzofuran-6-carboxamide] |
| 12.7 |  |  | Cn1ccc(NC(=O)c2cc(Oc3ccc(S(C)(=O)=O)cc3)c3cc(C(=O)N4CCC4)oc3c2)n1 [Example 291, 2-(Azetidin-1-ylcarbonyl)-N-(1-methyl-1H-pyrazol-3-yl)-4-[4-(methylsulfonyl)-phenoxy]-1-benzofuran-6-carboxamide] |
| 16.7 |  |  | Cn1ncc(NC(=O)c2cc(Oc3ccc(S(C)(=O)=O)cc3)c3cc(C(=O)N4CCC4)oc3c2)n1 [Example 292, 2-(Azetidin-1-ylcarbonyl)-4-[4-(methylsulfonyl)phenoxy]-N-(2-methyl-2H-1,2,3-triazol-4-yl)-1-benzofuran-6-carboxamide] |
| 46.9 | 0.59 | 50 | COc1ccnc(NC(=O)c2cc(Oc3ccc(S(=O)(=O)N(C)C)c(F)c3)c3cc(C)oc3c2)c1 [Example 293, 4-{4-[(Dimethylamino)sulfonyl]-3-fluorophenoxy}-N-(4-methoxypyridin-2-yl)-2-methyl-1-benzofuran-6-carboxamide] |
| 122 | 0.2 | 132 | Cc1cc2c(Oc3ccc(S(=O)(=O)N4CCC4)cc3)cc(C(=O)Nc3ccn(C)n3)cc2o1 [Example 294, 4-(4-(Azetidin-1-ylsulfonyl)phenoxy)-2-methyl-N-(1-methyl-1H-pyrazol-3-yl)benzofuran-6-carboxamide] |
| 46.9 | 0.36 | 50 | COc1ccnc(NC(=O)c2cc(Oc3ccc(S(=O)(=O)N4CCC4)cc3)c3cc(C)oc3c2)c1 [Example 295, 4-(4-(Azetidin-1-ylsulfonyl)phenoxy)-N-(4-methoxypyridin-2-yl)-2-methyl-benzofuran-6-carboxamide] |
| 70 | 0.2 | 77 | Cc1cc2c(Oc3ccc(S(=O)(=O)N4CCC4)cc3)cc(C(=O)Nc3ccccn3)cc2o1 [Example 296, 4-(4-(Azetidin-1-ylsulfonyl)phenoxy)-2-methyl-N-(pyridin-2-yl)benzofuran-6-carboxamide] |
| 61.9 | 0.13 | 68 | Cc1ccc(NC(=O)c2cc(Oc3ccc(S(=O)(=O)N4CCC4)cc3)c3cc(C)oc3c2)nc1 [Example 297, 4-(4-(Azetidin-1-ylsulfonyl)phenoxy)-2-methyl-N-(5-methylpyridin-2-yl)-benzofuran-6-carboxamide] |
| 113 | 0.21 | 132 | Cc1cc2c(Oc3ccc(S(=O)(=O)N4CCC4)cc3)cc(C(=O)Nc3cnn(C)n3)cc2o1 [Example 298, 4-(4-(Azetidin-1-ylsulfonyl)phenoxy)-2-methyl-N-(2-methyl-2H-1,2,3-triazol-4-yl)benzofuran-6-carboxamide] |
| 106 | 0.18 | 107 | Cc1cc2c(Oc3ccc(S(=O)(=O)N4CCC4)cc3)cc(C(=O)Nc3cnc(N(C)C)cn3)cc2o1 [Example 299, 4-(4-(Azetidin-1-ylsulfonyl)phenoxy)-N-(5-(dimethylamino)-pyrazin-2-yl)-2-methylbenzofuran-6-carboxamide] |
| 53.4 | 0.71 | 56 | Cc1cc2c(Oc3ccc(S(=O)(=O)N4CCC4)cc3)cc(C(=O)Nc3ccc(Cl)cn3)cc2o1 [Example 300, 4-(4-(Azetidin-1-ylsulfonyl)phenoxy)-N-(5-chloropyridin-2-yl)-2-methyl-benzofuran-6-carboxamide] |
| 168 | 0.15 | 137 | Cc1cc2c(Oc3ccc(S(=O)(=O)N4CCC4)cc3)cc(C(=O)Nc3ccc(CO)cn3)cc2o1 [Example 301, 4-(4-(Azetidin-1-ylsulfonyl)phenoxy)-N-(5-(hydroxymethyl)-pyridin-2-yl)-2-methylbenzofuran-6-carboxamide] |
| 123 | 1.3 | 110 | CCOc1ccc(NC(=O)c2cc(Oc3ccc(S(=O)(=O)N4CCC4)cc3)c3cc(C)oc3c2)nc1 [Example 302, 4-(4-(Azetidin-1-ylsulfonyl)phenoxy)-N-(5-ethoxypyridin-2-yl)-2-methyl-benzofuran-6-carboxamide] |
| 195 | 0.65 | 179 | COc1cnc(NC(=O)c2cc(Oc3ccc(S(=O)(=O)N4CCC4)cc3)c3cc(C)oc3c2)cn1 [Example 303, 4-(4-(Azetidin-1-ylsulfonyl)phenoxy)-N-(5-methoxypyrazin-2-yl)-2-methyl-benzofuran-6-carboxamide] |
| 94.6 | 0.24 | 89 | Cc1ccc(NC(=O)c2cc(Oc3ccc(S(=O)(=O)N(C)C)c(F)c3)c3cc(C)oc3c2)nc1 [Example 304, 4-{4-[(Dimethylamino)sulfonyl]-3-fluorophenoxy}-2-methyl-N-(5-methyl-pyridin-2-yl)-1-benzofuran-6-carboxamide] |
